This passage reports IC50 results from patent US20260008758A1, “LINEAR DIPEPTIDYL PEPTIDASE 1 INHIBITORS AND USES THEREOF” (Insmed Incorporated, priority 2024, published 2026).

The target of experiment [1] is human DPP1 enzyme (Homo sapiens (Human), UniProt P53634). Nature of the experiment: Human DPP1 enzyme IC50 assay. Type of experiment: biochemical. To be noted: recombinant human DPP1, H-Gly-Arg-AMC substrate 400 μM. In short, it runs like this: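 Fluorogenic readout (350/450 nm, every 5 min over 90 min, 37°C) of H-Gly-Arg-AMC cleavage at 400 μM final substrate. Compounds met activated DPP1 first for a 10-min 37°C pre-incubation in MES buffer pH 6.0 with DTT, 1% DMSO final. Four-parameter sigmoidal fit gave IC50.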
Sequence of human DPP1 enzyme (P53634 25-134): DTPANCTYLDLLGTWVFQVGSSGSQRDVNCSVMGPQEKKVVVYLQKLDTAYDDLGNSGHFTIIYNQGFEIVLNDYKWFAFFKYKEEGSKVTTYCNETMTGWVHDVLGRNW
Sequence of human DPP1 enzyme (P53634 231-394): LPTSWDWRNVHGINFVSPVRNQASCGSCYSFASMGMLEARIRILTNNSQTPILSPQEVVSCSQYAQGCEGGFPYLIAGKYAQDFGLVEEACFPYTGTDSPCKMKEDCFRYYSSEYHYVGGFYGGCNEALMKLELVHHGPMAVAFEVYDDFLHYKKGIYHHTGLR
Sequence of human DPP1 enzyme (P53634 395-463): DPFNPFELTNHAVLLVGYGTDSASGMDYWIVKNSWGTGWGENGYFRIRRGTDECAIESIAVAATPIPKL

The target in experiment [2] is active mouse DPP1 enzyme (Mus musculus (Mouse), UniProt P97821). Nature of the experiment: Mouse DPP1 enzyme IC50 assay. Type of experiment: biochemical. As to conditions: active mouse DPP1, H-Gly-Arg-AMC substrate 400 μM. On the procedure: 25 μL of compound in Assay Buffer plus 5% DMSO was first added to 50 μL of active mouse DPP1 enzyme at a concentration of 62.5 pg/μL and allowed to pre-incubate for 10 minutes at 37° C. after which 50 μL of 1000 μM H-Gly-Arg-AMC substrate (Bachem; St. Torrance, CA) was added, giving final substrate concentration of 400 μM and a final DMSO concentration of 1%. Substrate cleavage was measured for 90 minutes at 37° C., with fluorescence at Excitation/Emission 350/450 nm measured every 5 minutes. DPP1 concentration was interpolated based on its activity relative to a standard curve of recombinant active mouse DPP1 enzyme. IC50 values for each compound were calculated via the XLFit (IDBS Version 5.3.1.3) Add-On to Microsoft Excel using the four parameter fit equation y=(A+((B-A)/(1+((C/x)^D)))), which appears as equation number 205 (4 Parameter Logistic Model or Sigmoidal Dose-Response Model) in XLFit. Default constraints were used for each Parameter.
Sequence of active mouse DPP1 enzyme (P97821 25-134): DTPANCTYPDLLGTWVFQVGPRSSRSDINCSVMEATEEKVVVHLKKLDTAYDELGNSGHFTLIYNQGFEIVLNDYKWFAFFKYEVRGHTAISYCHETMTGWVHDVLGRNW
Sequence of active mouse DPP1 enzyme (P97821 231-393): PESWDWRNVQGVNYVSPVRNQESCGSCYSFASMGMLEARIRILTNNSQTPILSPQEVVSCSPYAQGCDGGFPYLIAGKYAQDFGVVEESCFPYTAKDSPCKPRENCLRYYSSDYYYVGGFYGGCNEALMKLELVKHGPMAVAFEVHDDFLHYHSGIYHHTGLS
Sequence of active mouse DPP1 enzyme (P97821 394-462): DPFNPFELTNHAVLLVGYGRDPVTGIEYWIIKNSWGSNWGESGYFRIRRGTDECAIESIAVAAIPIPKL

In experiment [3] the target is DPP1 in HL-60 cells (Homo sapiens (Human), UniProt P53634). Kind of experiment: DPP1 Cell IC50 assay. It counts as cell-based. To be noted: H-Gly-Phe-AFC substrate, 60 min pre-incubation. In short, it runs like this:
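HL-60 cells (5×10^5 live cells/mL in PBS) were pre-incubated with compound in 0.5% DMSO for 60 min at 37 °C, 5% CO2, with shaking, then given 500 μM H-Gly-Phe-AFC solution for 30 min. Fluorescence was read at 400/505 nm. % inhibition was taken against vehicle wells, and IC50 came from a four-parameter logistic fit.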

Sequence of DPP1 in HL-60 cells (P53634 25-134): as the sequence (P53634 25-134) above
Sequence of DPP1 in HL-60 cells (P53634 231-394): as the sequence (P53634 231-394) above
Sequence of DPP1 in HL-60 cells (P53634 395-463): as the sequence (P53634 395-463) above

For `CN(C)C[C@H](O)C(=O)N[C@H](C#N)Cc1ccc(-c2ccc3oc(=O)n(C)c3c2)cc1` [Compound 101, (2S)—N-[(1S)-1-cyano-2-[4-(3-methyl-2-oxo-1,3-benzoxazol-5-yl)phenyl]ethyl]-3-(dimethylamino)-2-hydroxypropanamide], the IC50 (commonly the concentration that gives 50% inhibition) in experiment [1] is ≥ 15 nM; in experiment [2], 5 to 20 nM; in experiment [3], 1 to 2.5 nM.

For `CN(C)C[C@H](O)C(=O)N[C@H](C#N)Cc1ccc(-c2ccc3c(c2)C2(CN(C)C2)OC3=O)cc1` [Compound 137, (S)—N—((S)-1-cyano-2-(4-(1-methyl-3′-oxo-3′H-spiro[azetidine-3,1′-isobenzofuran]-6′-yl)phenyl)ethyl)-3-(dimethylamino)-2-hydroxypropanamide], the IC50 is ≥ 15 nM in experiment [1], ≤ 5 nM in experiment [2] and ≥ 2.5 nM in experiment [3].

Regarding `CN(C)C[C@H](O)C(=O)N[C@H](C#N)Cc1ccc(-c2ccc3oc(=O)n(C)c3c2)cc1F` [Compound 138, (2S)—N-[(1S)-1-cyano-2-[2-fluoro-4-(3-methyl-2-oxo-1,3-benzoxazol-5-yl)phenyl]ethyl]-3-(dimethylamino)-2-hydroxypropanamide], the concentration for half-maximal inhibition (IC50) in experiment [1] was 5 to 15 nM; in experiment [2], 5 to 20 nM; in experiment [3], ≤ 1 nM.

For the molecule `CN(C)C[C@H](O)C(=O)N[C@H](C#N)Cc1ccc(-c2ccc3oc(=O)n(CCN4CCOCC4)c3c2)cc1` [Compound 140, (2S)—N-[(1S)-1-cyano-2-(4-{3-[2-(morpholin-4-yl)ethyl]-2-oxo-1,3-benzoxazol-5-yl}phenyl)ethyl]-3-(dimethylamino)-2-hydroxypropanamide], the half-inhibitory concentration (IC50) in experiment [1] was ≥ 15 nM; in experiment [2], 5 to 20 nM; in experiment [3] it was ≥ 2.5 nM.

Take `CC(N)CC(=O)N[C@H](C#N)Cc1ccc(-c2ccc3oc(=O)n(C)c3c2)cc1` (stereo partly shown) [Compound 160]: the IC50 in experiment [1] was ≥ 15 nM; in experiment [2] it was ≥ 20 nM.

As to `CC(CN)C(=O)N[C@H](C#N)Cc1ccc(-c2ccc3oc(=O)n(C)c3c2)cc1` (stereo partly shown) [Compound 161], the IC50 in experiment [1] is ≥ 15 nM; in experiment [2], ≥ 20 nM.

As to `CCC(N)CC(=O)N[C@H](C#N)Cc1ccc(-c2ccc3oc(=O)n(C)c3c2)cc1` (stereo partly shown) [Compound 162], the concentration for half-maximal inhibition (IC50) in experiment [1] was ≥ 15 nM; in experiment [2], ≥ 20 nM.

`C=CC[C@H](N)CC(=O)N[C@H](C#N)Cc1ccc(-c2ccc3oc(=O)n(C)c3c2)cc1` [Compound 163]: the IC50 in experiment [1] was ≥ 15 nM; in experiment [2], ≥ 20 nM.

For the molecule `CC(C)C(N)CC(=O)N[C@H](C#N)Cc1ccc(-c2ccc3oc(=O)n(C)c3c2)cc1` (stereo partly drawn) [Compound 164, 3-amino-N-[(1S)-1-cyano-2-[4-(3-methyl-2-oxo-2,3-dihydro-1,3-benzoxazol-5-yl)phenyl]ethyl]-4-methylpentanamide], the results for the half-maximal inhibitory concentration (IC50) in experiment [1], in experiment [2] and in experiment [3] were ≥ 15 nM, ≥ 20 nM and ≥ 2.5 nM, respectively.

Take `C=CC[C@@H](N)CC(=O)N[C@H](C#N)Cc1ccc(-c2ccc3oc(=O)n(C)c3c2)cc1` [Compound 165, (3R)-3-amino-N-[(1S)-1-cyano-2-[4-(3-methyl-2-oxo-2,3-dihydro-1,3-benzoxazol-5-yl)phenyl]ethyl]hex-5-enamide]: the IC50 is ≥ 15 nM in experiment [1], ≥ 20 nM in experiment [2] and ≥ 2.5 nM in experiment [3].

Turning to `Cn1c(=O)oc2ccc(-c3ccc(C[C@@H](C#N)NC(=O)CC(N)C(F)F)cc3)cc21` (stereo partly shown) [Compound 166], the IC50 in experiment [1] was ≥ 15 nM; in experiment [2], ≥ 20 nM.

As to `C=CCC(CN)C(=O)N[C@H](C#N)Cc1ccc(-c2ccc3oc(=O)n(C)c3c2)cc1` (stereo partly drawn) [Compound 167, 2-(aminomethyl)-N-[(1S)-1-cyano-2-[4-(3-methyl-2-oxo-2,3-dihydro-1,3-benzoxazol-5-yl)phenyl]ethyl]pent-4-enamide], the figures for the half-maximal inhibitory concentration (IC50) in experiment [1], in experiment [2] and in experiment [3] were ≥ 15 nM, ≥ 20 nM and ≥ 2.5 nM, respectively.

`C[C@H](O)[C@@](C)(N)C(=O)N[C@H](C#N)Cc1ccc(-c2ccc3oc(=O)n(C)c3c2)cc1` [Compound 171D, (2R,3S)-2-amino-N-[(1S)-1-cyano-2-[4-(3-methyl-2-oxo-1,3-benzoxazol-5-yl)phenyl]ethyl]-3-hydroxy-2-methylbutanamide]: the half-inhibitory concentration (IC50) was 5 to 15 nM in experiment [1], 5 to 20 nM in experiment [2] and ≥ 2.5 nM in experiment [3].

With `Cn1c(=O)oc2ccc(-c3ccc(C[C@@H](C#N)NC(=O)C[C@@H](N)Cc4cccs4)cc3)cc21` [Compound 181], the IC50 in experiment [1] was ≥ 15 nM; in experiment [2] it was ≥ 20 nM.

On to `Cn1c(=O)oc2ccc(-c3ccc(C[C@@H](C#N)NC(=O)C[C@H](N)Cc4cccs4)cc3)cc21` [Compound 182, (3S)-3-amino-N-[(1S)-1-cyano-2-[4-(3-methyl-2-oxo-2,3-dihydro-1,3-benzoxazol-5-yl)phenyl]ethyl]-4-(thiophen-2-yl)butanamide], for which the concentration for half-maximal inhibition (IC50) in experiment [1] is ≥ 15 nM; in experiment [2], ≥ 20 nM; in experiment [3] it was ≥ 2.5 nM.

As for `Cn1c(=O)oc2ccc(-c3ccc(C[C@@H](C#N)NC(=O)CC(N)CCc4ccccc4)cc3)cc21` (stereo partly shown) [Compound 183], the concentration for half-maximal inhibition (IC50) was ≥ 15 nM in experiment [1] and ≥ 20 nM in experiment [2].

For the molecule `Cn1c(=O)oc2ccc(-c3ccc(C[C@@H](C#N)NC(=O)CC(N)Cc4ccccc4)cc3)cc21` (stereo partly drawn) [Compound 184, 3-amino-N-[(1S)-1-cyano-2-[4-(3-methyl-2-oxo-2,3-dihydro-1,3-benzoxazol-5-yl)phenyl]ethyl]-4-phenylbutanamide], the IC50 in experiment [1] was ≥ 15 nM; in experiment [2], ≥ 20 nM.

Turning to `Cn1c(=O)oc2ccc(-c3ccc(C[C@@H](C#N)NC(=O)CC(N)Cc4ccsc4)cc3)cc21` (stereo partly shown) [Compound 185], the concentration for half-maximal inhibition (IC50) was ≥ 15 nM in experiment [1] and ≥ 20 nM in experiment [2].

For the molecule `Cn1c(=O)oc2ccc(-c3ccc(C[C@@H](C#N)NC(=O)C[C@@H](N)Cc4ccccc4)cc3)cc21` [Compound 186], the IC50 in experiment [1] was ≥ 15 nM; in experiment [2], ≥ 20 nM.

As for `Cn1c(=O)oc2ccc(-c3ccc(C[C@@H](C#N)NC(=O)C[C@H](N)Cc4ccccc4)cc3)cc21` [Compound 187], the results for the IC50 in experiment [1] and in experiment [2] were ≥ 15 nM and ≥ 20 nM, respectively.

As to `Cn1c(=O)oc2ccc(-c3ccc(C[C@@H](C#N)NC(=O)CCNC(=O)c4cccs4)cc3)cc21` [Compound 238, N-[(1S)-1-cyano-2-[4-(3-methyl-2-oxo-1,3-benzoxazol-5-yl)phenyl]ethyl]-3-(thiophen-2-ylformamido)propanamide], the figures for the IC50 in experiment [1] and in experiment [2] were ≥ 15 nM and ≥ 20 nM, respectively.

`Cn1c(=O)oc2ccc(-c3ccc(C[C@@H](C#N)NC(=O)CNC(=O)c4ccco4)cc3)cc21` [Compound 240, N-[(1S)-1-cyano-2-[4-(3-methyl-2-oxo-1,3-benzoxazol-5-yl)phenyl]ethyl]-2-(furan-2-ylformamido)acetamide]: the concentration for half-maximal inhibition (IC50) in experiment [1] was ≥ 15 nM; in experiment [2], ≥ 20 nM.

In the case of `Cn1c(=O)oc2ccc(-c3ccc(C[C@@H](C#N)NC(=O)CCC#N)cc3)cc21` [Compound 241], the IC50 was ≥ 15 nM in experiment [1] and ≥ 20 nM in experiment [2].

With `CC(O)C(=O)N[C@H](C#N)Cc1ccc(-c2ccc3oc(=O)n(C)c3c2)cc1` (stereo partly shown) [Compound 242], the IC50 in experiment [1] is ≥ 15 nM; in experiment [2], ≥ 20 nM.

Turning to `Cn1c(=O)oc2ccc(-c3ccc(C[C@@H](C#N)NC(=O)COC(=O)c4ccco4)cc3)cc21` [Compound 243, {[(1S)-1-cyano-2-[4-(3-methyl-2-oxo-1,3-benzoxazol-5-yl)phenyl]ethyl]carbamoyl}methyl furan-2-carboxylate], the IC50 is ≥ 15 nM in experiment [1] and ≥ 20 nM in experiment [2].

`N#Cc1ccc(-c2ccc(C[C@@H](C#N)NC(=O)C3(N)CCOCC3)c(I)c2)cc1` [Compound 248, 4-amino-N-[(1S)-1-cyano-2-{4′-cyano-3-iodo-[1,1′-biphenyl]-4-yl}ethyl]oxane-4-carboxamide]: the IC50 in experiment [1] is ≥ 15 nM; in experiment [2], ≥ 20 nM; in experiment [3], ≥ 2.5 nM.

In the case of `CC(O)CNCC(=O)N[C@@H](C#N)Cc1ccc(-c2ccc3oc(=O)n(C)c3c2)cc1` (stereo partly shown) [compound 175], the IC50 in experiment [1] was ≥ 15 nM; in experiment [2], 5 to 20 nM.
